The values that follow come from publication PMC8837113, “Drug Repurposing of the Unithiol: Inhibition of Metallo-β-Lactamases for the Treatment of Carbapenem-Resistant Gram-Negative Bacterial Infections” (International Journal of Molecular Sciences, 2022).

Assay [1] concerns the target T1, metallo-β-lactamase NDM-1 (Klebsiella pneumoniae, UniProt C7C422).
T1 construct: gene blaNDM-1; recombinant NDM-1, purified from the periplasmic fraction of E. coli BL21(DE3) (pET-NDM)
Nature of the assay: meropenem hydrolysis kinetics, Lineweaver–Burk (spectrophotometric, […] nm). The format is biochemical.

Assay [2] concerns the target T2, metallo-β-lactamase VIM-2 (Pseudomonas aeruginosa, UniProt Q9K2N0).
T2 construct: gene blaVIM-2; active mature VIM-2 in periplasmic fractions of P. aeruginosa strains B-730P/17 and B-2099/18
The experiment in a line: kinetic inhibition assay in periplasmic fractions (Figure S1); disk diffusion and MIC support. The format is cell-based.

T1 sequence (C7C422 29-270 limits assumed): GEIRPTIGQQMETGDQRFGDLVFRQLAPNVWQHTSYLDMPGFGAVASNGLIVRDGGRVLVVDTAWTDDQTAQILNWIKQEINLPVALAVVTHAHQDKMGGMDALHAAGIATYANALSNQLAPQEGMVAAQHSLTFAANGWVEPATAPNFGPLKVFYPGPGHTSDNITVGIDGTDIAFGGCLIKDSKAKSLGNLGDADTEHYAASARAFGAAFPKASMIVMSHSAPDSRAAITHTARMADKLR

On to `O=S(=O)(O)CC(S)CS` (centres unmarked) [compound 2, 2,3-dimercaptopropane-1-sulfonate], for which the Ki (in general, a dissociation constant, usually derived from enzyme kinetics or from competition with a known ligand) in assay [1] turned out to be 16.7 ± 1.2 µM. In assay [2], the “kinetic inhibition assay in periplasmic fractions (Figure S1); disk diffusion an” value is given as “A noticeable dose-dependent inhibitory effect of unithiol (Figure S1) was observed for the two strains studied”.
